The source of these data is US7390411B2, “Method for preparing a compound of interaction of active substances with a porous support using supercritical fluid” (Pierre Fabre Medicament, priority 2001, dated 2008).

Holding throughout (format): physicochemical
Data set [1] in a line: Dissolution tests on product F12511 (HPLC, 5% sodium lauryl sulfate, 2 hours). How it is done: Dissolution Tests on Product F12511
Spectrophotometric detector set at 220 nm.
C8 graft column (Lichrospher 60RP-Select B), dimensions 25×0.4 cm, particle size: 5 μm.
Flow Rate: 1 ml/min Preparation of Solutions: Solution Under Examination
Introduce an amount of complex corresponding to approximately 100 mg of product F12511 into 100 ml of 5% (m/V) sodium lauryl sulfate in H2O. Subject the system to magnetic stirring in a waterbath at 37° C.±0.5° C. Withdraw 2 ml sample of this suspension after 2 hours of stirring and filter it on a Gelman GHP Acrodisc GF (R) filter.
Dilute the samples 1/5 in the mobile phase. Carry out 2 tests.
Introduce 8 mg of reference product F12511 (starting material used to prepare the complex) in a 100 ml flask and dissolve it in 1 ml of tetrahydrofuran (THF). Make up to volume with the mobile phase.
Inject 20 μl of each control solution. Measure the area of the peak of product F12511 and represent its variation as a function of concentration in the form of a graph. The correlation coefficient is>0.995. Inject 20 μl of the test solution. Measure the area of the peak of product F12511 present in the test solution, and ensure that it lies between that of T1 and of T5 in the range.
If this is not the case, perform a dilution in the solubilizing solvent and/or adjust the injection volume of the test solution.
From this, work out the concentration X (μg/ml) of the test solution.
Calculate the amount of dissolved product F12511 in mg/ml by the following formula:
[formula] • Y: injection volume of the test solution • F: dilution factor Measurements of Specific Surface Areas

A short description of data set [2]: Measurements of specific surface areas (BET). The note with it: specific surface area. The method, then:
The specific surface area measurements were carried out on a BET ASAP 2010 adsorption apparatus from Micrometrics.
Before the measuring phase, the sample requires a degassing step. This step consists in evacuating the cell containing the sample until a vacuum of at least 0.003 mm Hg, or approximately 0.004 mbar, is reached stably. This degassing is carried out at a temperature of 50° C. (duration: approximately 16 hours).
At the end of degassing, the cell containing the sample is filled with helium and transferred to the measuring station, where evacuation is repeated before analysis.
Processing of the Adsorption Isotherms
The specific surface area was determined in accordance with the BET theory, i.e., in accordance with the following relationship:
[formula] • W: volume of gas adsorbed (under standard temperature and pressure (STP) conditions) per unit mass of sample. • Wm: volume of gas adsorbed (under STP conditions) in a monolayer per unit mass of sample. • P0: saturation pressure. • C: constant.
The isotherm is then plotted as follows:
As a function of P/P0: we then have a straight line of which the slope and the ordinate at the origin give us C and Wm.
The specific surface area is then given by the following formula: a(m^2·g^−1)=NmNAE • E: space occupancy of the nitrogen molecule. For nitrogen at 77 K operating temperature this is generally taken to be E=0.162 nm^2. • NA: Avogadro's number. • Nm: number of moles of nitrogen adsorbed on a monolayer per unit mass of sample, calculated from Wm. The measurements are carried out within a conventional field of relative pressure in which the BET theory is valid, namely 0.05<P/P0<0.2. In order to verify the validity of this theory, one practical means is to look at the direction in which the quantity Nadsorbed. (1-P/P0) changes as a function of P/P0: it should increase continually with P/P0.
Verify the range of applicability of the BET theory in this way, and if necessary readjust the range of relative pressures.

Data set [3] is described as follows: Dissolution test ketoprofen powders (UV 260 nm). The settings on record: water, 37° C. How it is done:
Powder Analysis Protocol: Dissolution Test Operating conditions:
UV analysis at a wavelength of 260 nm.
Prepare a standard solution in H2O. Ensure that an absorbance<2 is maintained.
(§1) Execution of the Analysis:
(§2) Dissolve the powder with magnetic stirring using a stirrer bar in a waterbath at 37±0.5° C.
(§3) Withdraw 2 ml of this suspension after 2 hours of stirring and filter it on a 0.45 μm Gelman GHP filter. Carry out the UV analysis, ensuring that the absorbance is less than 2. If it is not, carry out dilution.

The nature of data set [4]: Dissolution test terfenadine powders (UV 259 nm). The settings on record: water, 37° C. The method, then: Powder Analysis Protocol: Dissolution Test Operating Conditions:
UV analysis at a wavelength of 259 nm.
Prepare a standard solution in 1% (m/v) sodium lauryl sulfate in H2O. Ensure that an absorbance<2 is maintained.
as §1, §2, §3

Where [5] appears, read: Comparative Example 1, 2 hours, 5% sodium lauryl sulfate, 37° C.
[6] abbreviates: Comparative Example 2, dissolution after two hours, 5% sodium lauryl sulfate, 37° C.

In brackets after ≈: the same amount, converted by molar mass. Where only a bound is given, the exact number is not on record here.

Turning to `CCCCCCCCCCCCS[C@H](C(=O)Nc1cc(C)c(O)c(C)c1C)c1ccccc1`, the Dissolution turned out to be 80 µg/mL in data set [1] (Comparative Example 5 (F12511 generated by SAS/ethanol), 2 hours, 5% sodium lauryl sulfate, 37° C.); 57 µg/mL in data set [1] (Comparative Example 6 (F12511 generated by SAS/DMSO), 2 hours, 5% sodium lauryl sulfate, 37° C.); 8 µg/mL in data set [1] (Comparative Example 7 (F12511 generated by RESS), 2 hours, 5% sodium lauryl sulfate, 37° C.).

As for `CCCCCCCCCCCCS[C@H](C(=O)Nc1cc(C)c(O)c(C)c1C)c1ccccc1` [Example F12511, (S)-2′,3′,5′-trimethyl-4′-hydroxy-α-dodecylthiophenyl-acetanilide], the Dissolution was 6 to 12 µg/mL in data set [1] (setting [5]); 12 µg/mL in data set [1] (setting [6]); 12 µg/mL in data set [1] (Comparative Example 3, 2 hours, 5% sodium lauryl sulfate, 37° C.); approximately 15 µg/mL in data set [1] (Comparative Example 5 (F12511 generated by SAS/ethanol), 2 hours, 5% sodium lauryl sulfate, 37° C., listed as F12511 before precipitation); 5 µg/mL in data set [1] (Comparative Example 6 (F12511 generated by SAS/DMSO), 2 hours, 5% sodium lauryl sulfate, 37° C., listed as F12511 before precipitation); approximately 10 µg/mL in data set [1] (Comparative Example 7 (F12511 generated by RESS), 2 hours, 5% sodium lauryl sulfate, 37° C., listed as F12511 before precipitation). In addition, the Dissolution in data set [1] (Example 4 (coprecipitation SAS/DMSO with γ-cyclodextrin), 2 hours, 5% sodium lauryl sulfate, 37° C.) was approximately 15 µg/mL. Also, the “Dissolution of 2 hours, Active principle alone” value in data set [1] (F12511 alone) turned out to be 12 µg/mL. For the same compound, in data set [1] (after 2 hours, 5% aqueous sodium lauryl sulfate), the “solubility after 2 hours in 5% aqueous sodium lauryl sulfate solution” value is 6 µg/mL (≈ 12.8 µM). The BET in data set [2] (Comparative Example 1) and in data set [2] (Comparative Example 2) was 14 m^2/g each time.

Regarding `CCCCCCCCCCCCS[C@H](C(=O)Nc1cc(C)c(O)c(C)c1C)c1ccccc1` [F12511 precipitated by RESS], the Dissolution was 76 µg/mL in data set [1] (setting [6]) and 76 µg/mL in data set [1] (summary table, powder after precipitation or coprecipitation only, no molecular diffusion, listed as Comp. Ex. 2). This compound also returned a BET in data set [2] (Comparative Example 2) of 67 m^2/g.

For `CCCCCCCCCCCCS[C@H](C(=O)Nc1cc(C)c(O)c(C)c1C)c1ccccc1` [F12511 precipitated by SAS], the Dissolution in data set [1] (setting [5]) was determined as 62 µg/mL; in data set [1] (summary table, powder after precipitation or coprecipitation only, no molecular diffusion) it was 62 µg/mL. This compound displayed a BET in data set [2] (Comparative Example 1) of 54 m^2/g.

`CC(C(=O)O)c1cccc(C(=O)c2ccccc2)c1` (stereo not shown) [Ketoprofen]: the “concentration after 2 hours of dissolution, Active principle alone” value in data set [3] worked out at 333 µg/mL.

As to `CC(C)(C)c1ccc(C(O)CCCN2CCC(C(O)(c3ccccc3)c3ccccc3)CC2)cc1` (stereo not shown) [Terfenadine], the “concentration after 2 hours of dissolution, Active principle alone” value in data set [4] was less than 1 µg/mL.
